# Laboratory results as given in US20230279020A9, “CARM1 INHIBITORS AND USES THEREOF” (Epizyme, Inc., priority 2013, published 2023).
# pIC50: −log10 of the molar value.
# Biological target: Human CARM1 (PRMT4) (Homo sapiens (Human), UniProt Q86X55)
# Assay: CARM1 enzyme assay on peptide substrate (3H-SAM Flashplate)
# Settings: Biochemical potencies, classification codes; read-out: Biochem IC50
# Human CARM1 (PRMT4), sequence (Q86X55 other isoform, or with tags, fused parts or gaps isoform Q86X55-1): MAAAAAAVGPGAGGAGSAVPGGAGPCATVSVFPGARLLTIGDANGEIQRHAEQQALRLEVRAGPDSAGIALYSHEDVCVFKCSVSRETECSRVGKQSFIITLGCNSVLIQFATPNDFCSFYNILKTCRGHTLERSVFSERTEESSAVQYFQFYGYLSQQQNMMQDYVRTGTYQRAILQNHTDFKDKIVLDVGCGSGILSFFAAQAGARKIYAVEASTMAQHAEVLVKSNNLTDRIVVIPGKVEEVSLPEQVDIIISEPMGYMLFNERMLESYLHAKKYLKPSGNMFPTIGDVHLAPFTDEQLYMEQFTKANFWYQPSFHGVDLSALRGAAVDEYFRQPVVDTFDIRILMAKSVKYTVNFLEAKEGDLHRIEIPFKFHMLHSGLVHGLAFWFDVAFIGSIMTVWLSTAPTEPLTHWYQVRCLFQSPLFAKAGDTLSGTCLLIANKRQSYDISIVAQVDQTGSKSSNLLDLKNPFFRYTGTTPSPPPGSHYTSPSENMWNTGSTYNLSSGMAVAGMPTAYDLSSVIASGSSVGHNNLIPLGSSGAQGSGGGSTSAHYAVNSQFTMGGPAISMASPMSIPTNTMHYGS
row,Compound,pIC50
1,CNC[C@@H](O)COc1ccc(F)c(-c2nc(-c3c(C)noc3C)c(C)c(N3Cc4cncnc4C3)n2)c1 [Example 260-3],> 7.00
2,CNCC(O)COc1cccc(-c2nc(N[C@@H]3CCN(C4CC4)C[C@H]3F)c(C)c(-c3c(C)noc3C)n2)c1 (stereo partly drawn) [Example 261-1a],> 7.00
3,CNC[C@@H](O)COc1ccc(Cl)c(-c2nc(-c3c(C)noc3C)c(F)c(N3CC4(CCOCC4)C3)n2)c1 [Example 261-3],> 7.00
4,CNCC(O)COc1cccc(-c2nc(NCC3CCN(C4COC4)CC3)c(C)c(-c3c(C)noc3C)n2)c1 (stereo not drawn) [Example 262-1a],> 7.00
5,CNCC(O)COc1cccc(-c2nc(NC3CCN(C4COC4)CC3)c(C)c(-c3c(C)noc3C)n2)c1 (stereo not drawn) [Example 263-1a],> 7.00
6,CNC[C@@H](O)COc1ccc(Cl)c(-c2nc(-c3c(C)noc3C)c(C)c(N3Cc4cnc(C(F)(F)F)nc4C3)n2)c1 [Example 263-3],> 7.00
7,CNCC(O)COc1cccc(-c2nc(NC3CN(C(=O)C4CC4)C3)c(C)c(-c3c(C)noc3C)n2)c1 (stereo not drawn) [Example 264-1a],> 7.00
8,CNC[C@@H](O)COc1ccc(Cl)c(-c2nc(-c3c(C)noc3C)c(C)c(N3Cc4cnc(C(C)C)nc4C3)n2)c1 [Example 264-3],> 7.00
9,CNCC(O)COc1cccc(-c2nc(N[C@@H]3C[C@H]4CC[C@@H](C3)N4C(=O)OC)c(C)c(-c3c(C)noc3C)n2)c1 (stereo partly drawn) [Example 265-1a],> 7.00
10,CNC[C@@H](O)COc1ccc(Cl)c(-c2nc(-c3c(C)noc3C)c(C)c(N3Cc4cnn(CC(F)(F)F)c4C3)n2)c1 [Example 265-3],> 7.00
11,CNCC(O)COc1cccc(-c2nc(N[C@H]3C[C@H]4CC[C@@H](C3)N4C(=O)OC)c(C)c(-c3c(C)noc3C)n2)c1 (stereo partly drawn) [Example 266-1a],> 7.00
12,CNC[C@@H](O)COc1ccc(F)c(-c2nc(-c3c(C)noc3C)c(C)c(N3Cc4cccc(F)c4C3)n2)c1 [Example 266-3],> 7.00
13,CNCC(O)COc1cccc(-c2nc(N[C@H]3COC(=O)C3)c(C)c(-c3c(C)noc3C)n2)c1 (stereo partly drawn) [Example 267-1a],> 7.00
14,CNC[C@@H](O)COc1ccc(Cl)c(-c2nc(-c3c(C)noc3C)c(C)c(N3Cc4cccc(F)c4C3)n2)c1 [Example 267-3],> 7.00
15,CNCC(O)COc1cccc(-c2nc(N[C@@H]3COC(=O)C3)c(C)c(-c3c(C)noc3C)n2)c1 (stereo partly drawn) [Example 268-1a],> 7.00
16,CNC[C@@H](O)COc1ccc(Cl)c(-c2nc(-c3c(C)noc3C)c(C)c(C3CCOCC3)n2)c1 [Example 268-3],> 7.00
17,CNCC(O)COc1cccc(-c2nc(NC3CCOCC3C)c(C)c(-c3c(C)noc3C)n2)c1 (stereo not drawn) [Example 269-1a],> 7.00
18,CNC[C@@H](O)COc1ccc(F)c(-c2nc(-c3c(C)noc3C)c(C)c(N3CC4(CCCCO4)C3)n2)c1 [Example 269-3],> 7.00
19,CNCC(O)COc1ccc(Cl)c(-c2nc(NC3CCN(C(=O)OC)CC3)c(C)c(-c3c(C)noc3C)n2)c1 (stereo not drawn) [Example 270-1a],> 7.00
20,CNC[C@@H](O)COc1ccc(Cl)c(-c2nc(-c3c(C)noc3C)c(C)c(N3Cc4cnn(C5CC5)c4C3)n2)c1 [Example 270-3],> 7.00
21,CNCC(O)COc1cccc(-c2nc(N[C@@H]3CCOC[C@@H]3F)c(C)c(-c3c(C)noc3C)n2)c1 (stereo partly drawn) [Example 271-1a],> 7.00
22,CNC[C@H](O)COc1ccc(Cl)c(-c2nc(-c3c(C)noc3C)c(C)c(N3Cc4cn(C(C)C)nc4C3)n2)c1 [Example 272-1a],> 7.00

row,Compound,pIC50
1,CNC[C@@H](O)COc1ccc(Cl)c(-c2nc(-c3c(C)noc3C)c(C)c(N3Cc4cn(C(C)C)nc4C3)n2)c1 [Example 272-3],> 7.00
2,CCS(=O)(=O)N1CC(Nc2nc(-c3cccc(OCC(O)CNC)c3)nc(-c3c(C)noc3C)c2C)C1 (stereo not drawn) [Example 273-1a],> 7.00
3,CNCC(O)COc1ccc(Cl)c(-c2nc(NC3CCOCC3)c(C)c(-c3c(CO)noc3C)n2)c1 (stereo not drawn) [Example 273-3],> 7.00
4,CNCC(O)COc1cccc(-c2nc(NC[C@H]3COCCN3CC(F)F)c(C)c(-c3c(C)noc3C)n2)c1 (stereo partly drawn) [Example 274-1a],> 7.00
5,CNC[C@@H](O)COc1ccc(F)c(-c2nc(-c3c(C)noc3C)cc(N3Cc4nccnc4C3)n2)c1 [Example 274-3],> 7.00
6,CNCC(O)COc1cccc(-c2nc(NC3CN(C(=O)OC)C3)c(C)c(-c3c(C)noc3C)n2)c1 (stereo not drawn) [Example 275-1a],> 7.00
7,CNC[C@@H](O)COc1ccc(F)c(-c2nc(-c3c(C)noc3C)cc(N3Cc4cnn(C)c4C3)n2)c1 [Example 275-3],> 7.00
8,CCc1onc(C)c1-c1nc(-c2cccc(OCC(O)CNC)c2)nc(NC2CCOCC2)c1C (stereo not drawn) [Example 276-1a],> 7.00
9,CCOC(=O)N1CCOC[C@@H]1CNc1nc(-c2cccc(OC[C@H](O)CNC)c2)nc(-c2c(C)noc2C)c1C [Example 277-1a],> 7.00
10,CNC[C@@H](O)COc1ccc(F)c(-c2nc(-c3c(C)noc3C)cc(N3CC4(CCOCC4)C3)n2)c1 [Example 277-3],> 7.00
11,CCOC(=O)N1CCOC[C@@H]1CNc1nc(-c2cccc(OC[C@@H](O)CNC)c2)nc(-c2c(C)noc2C)c1C [Example 278-1a],> 7.00
12,CNC[C@@H](O)COc1cccc(-c2nc(NC3CCN(C(=O)OC)CC3)cc(-c3c(C)nnn3C)n2)c1 [Example 278-3],> 7.00
13,CNCC(O)COc1cccc(-c2nc(N[C@H]3CCOC[C@@H]3F)c(C)c(-c3c(C)noc3C)n2)c1 (stereo partly drawn) [Example 279-1a],> 7.00
14,CNC[C@@H](O)COc1ccc(Cl)c(-c2nc(-c3c(C)noc3C)c(C)c(N3Cc4[nH]c(=O)[nH]c(=O)c4C3)n2)c1 [Example 279-3],> 7.00
15,CNCC(O)COc1cccc(-c2nc(NC3C[C@@H](O)[C@H](O)C3)c(C)c(-c3c(C)noc3C)n2)c1 (stereo partly drawn) [Example 280-1a],> 7.00
16,CNC[C@@H](O)COc1ccc(F)c(-c2nc(-c3c(C)noc3C)c(C)c(N3CC4(CCN(CC(F)F)CC4)C3)n2)c1 [Example 280-3],> 7.00
17,CNCC(O)COc1cccc(-c2nc(N[C@H]3CCOC3=O)c(C)c(-c3c(C)noc3C)n2)c1 (stereo partly drawn) [Example 281-1a],> 7.00
18,CNC[C@@H](O)COc1ccc(F)c(-c2nc(-c3c(C)noc3C)c(C)c(N3CC4(CCN(C(=O)OC(C)C)CC4)C3)n2)c1 [Example 281-3],> 7.00
19,CNCC(O)COc1cccc(-c2nc(N[C@H]3[C@@H]4CN(C(=O)OC)C[C@@H]43)c(C)c(-c3c(C)noc3C)n2)c1 (stereo partly drawn) [Example 282-1a],> 7.00
20,CCOC(=O)N1CCC2(CC1)CN(c1nc(-c3cc(OC[C@H](O)CNC)ccc3F)nc(-c3c(C)noc3C)c1C)C2 [Example 282-3],> 7.00
21,CNCC(O)COc1cccc(-c2nc(NCC3CCN(C4CC4)CC3)c(C)c(-c3c(C)noc3C)n2)c1 (stereo not drawn) [Example 283-1a],> 7.00
22,CNC[C@@H](O)COc1ccc(Cl)c(-c2nc(-c3c(C)noc3C)c(C)c(N3CC4(CCN(CC(F)F)CC4)C3)n2)c1 [Example 283-3],> 7.00

row,Compound,pIC50
1,CNCC(O)COc1cccc(-c2nc(OCC3CCN(C(=O)OC)CC3)c(C)c(-c3c(C)noc3C)n2)c1 (stereo not drawn) [Example 284-1a],> 7.00
2,CNC[C@@H](O)COc1ccc(Cl)c(-c2nc(-c3c(C)noc3C)c(C)c(N3CC4(CCN(C(=O)OC(C)C)CC4)C3)n2)c1 [Example 284-3],> 7.00
3,CNCC(O)COc1cccc(-c2nc(OCC3CCN(C(=O)N(C)C)CC3)c(C)c(-c3c(C)noc3C)n2)c1 (stereo not drawn) [Example 285-1a],> 7.00
4,CCOC(=O)N1CCC2(CC1)CN(c1nc(-c3cc(OC[C@H](O)CNC)ccc3Cl)nc(-c3c(C)noc3C)c1C)C2 [Example 285-3],> 7.00
5,CNCC(O)COc1cccc(-c2nc(OCC3CCN(S(C)(=O)=O)CC3)c(C)c(-c3c(C)noc3C)n2)c1 (stereo not drawn) [Example 286-1a],> 7.00
6,CNC[C@@H](O)COc1ccc(Cl)c(-c2nc(-c3c(C)noc3C)c(C)c(N3CC4(CCN(C(=O)OC(C)C)C4)C3)n2)c1 [Example 286-3],> 7.00
7,CNCC(O)COc1cccc(-c2nc(OCC3CCN(C(C)=O)CC3)c(C)c(-c3c(C)noc3C)n2)c1 (stereo not drawn) [Example 287-1a],> 7.00
8,CCOC(=O)N1CCC2(C1)CN(c1nc(-c3cc(OC[C@H](O)CNC)ccc3Cl)nc(-c3c(C)noc3C)c1C)C2 [Example 287-3],> 7.00
9,CNCC(O)COc1cccc(-c2nc(OCC3CCN(CC(F)F)CC3)c(C)c(-c3c(C)noc3C)n2)c1 (stereo not drawn) [Example 288-1a],> 7.00
10,CNC[C@@H](O)COc1ccc(Cl)c(-c2nc(-c3c(C)noc3C)c(C)c(N3CCC4(CCOC4)C3)n2)c1 (stereo partly drawn) [Example 288-3],> 7.00
11,CNCC(O)COc1cccc(-c2nc(OCC3CCNCC3)c(C)c(-c3c(C)noc3C)n2)c1 (stereo not drawn) [Example 289-1a],> 7.00
12,CNC[C@@H](O)COc1ccc(Cl)c(-c2nc(-c3c(C)noc3C)c(C)c(N3CCC4(CCCO4)C3)n2)c1 (stereo partly drawn) [Example 289-3],> 7.00
13,CNCC(O)COc1cccc(-c2nc(NC3CCOC(C)(C)C3)c(C)c(-c3c(C)noc3C)n2)c1 (stereo not drawn) [Example 290-1a],> 7.00
14,CNC[C@@H](O)COc1ccc(Cl)c(-c2nc(-c3c(C)noc3C)c(C)c(N3CC4(CCCCO4)C3)n2)c1 [Example 290-3],> 7.00
15,CNCC(O)COc1cccc(-c2nc(N[C@@H]3CCOC3=O)c(C)c(-c3c(C)noc3C)n2)c1 (stereo partly drawn) [Example 291-1a],> 7.00
16,CNCC(O)COc1cccc(-c2nc(NC3CCC3)c(C)c(-c3c(C)noc3C)n2)c1 (stereo not drawn) [Example 292-1a],> 7.00
17,CNCC(O)COc1cccc(-c2nc(NC3CC3)c(C)c(-c3c(C)noc3C)n2)c1 (stereo not drawn) [Example 293-1a],> 7.00
18,CNC[C@@H](O)COc1ccc(Cl)c(-c2nc(-c3c(C)noc3C)c(C)c(N3Cc4cn(S(C)(=O)=O)nc4C3)n2)c1 [Example 293-3],> 7.00
19,CNCC(O)COc1cccc(-c2nc(-c3c(C)noc3C)c(C)c(N3CCC4(CC3)CN(C3CC3)C4)n2)c1 (stereo not drawn) [Example 294-1a],> 7.00
20,CNC[C@@H](O)COc1ccc(F)c(-c2nc(-c3c(C)noc3C)c(Cl)c(N3CC4(CCOCC4)C3)n2)c1 [Example 294-3],> 7.00
21,CCOC(=O)N1CC2(CCCN(c3nc(-c4cccc(OCC(O)CNC)c4)nc(-c4c(C)noc4C)c3C)C2)C1 (stereo not drawn) [Example 295-1a],> 7.00
22,CNC[C@@H](O)COc1ccc(F)c(-c2nc(-c3c(C)noc3C)c(Cl)c(N3Cc4nccnc4C3)n2)c1 [Example 295-3],> 7.00
